US11433053B2, “LSD1 inhibitor and preparation method and application thereof” (CSPC ZHONGQI PHARMACEUTICAL TECHNOLOGY (SHIJIAZHUANG) CO., …, priority 2017, dated 2022)

Assays:
human LSD1 = human LSD1 (Homo sapiens (Human), UniProt O60341); experiment: Evaluation of enzyme activity: LSD1 fluorescence coupling enzyme assay (HRP/Amplex Red); format: biochemical; conditions: human LSD1, histone H3(1-21)K4me2 peptide 10 μM, 30 min pre-incubation
Experimental: The purpose of this test is to test the in vitro inhibitory activities of the compounds against LSD1. The enzyme used in this experiment was human LSD1, and the standard substrate was histone H3(1-21)K4me2 peptide (10 μM). HCI-2509 (SP2509) was used as reference compound, and the fluorescence coupling enzyme assay was employed. The production of FAD-dependent H2O2 as a result of demethylase activity of LSD1 was measured by coupling with HRP and Amplex Red. Compounds as well as control compound HCl-2509 were tested in 10-dose IC50 mode with a 3-fold serial dilution in duplicate starting at 10 μm. All compounds were pre-incubated 30 mins with enzyme before added substrate to start reaction. Fluorescence measurement: Ex/Em=535/590 by EnVision.
The test compound's inhibitory activities against LSD11 was classified as: + for IC50≤50 nM; ++ for IC50>50 nM and ≤100 nM; +++ for IC50>100 nM and ≤500 nM, and the results are shown in Table 1.

H1417 cells = experiment: Cell proliferation inhibitory activity on H1417 cells (CellTiter-Glo, 10 days); format: cell-based, human; conditions: for IC50: 10 days incubation; for Emax: NCI-H1417, H1417 cells, read-out: Maximum inhibition percentage (%)
Experimental: Experimental purposes: To test the proliferation inhibitory activities of the test compounds on H1417 cells.
Experimental materials: RPMI 1640 medium, fetal bovine serum, Promega CellTiter-Glo reagent. The H1417 cell line purchased from ATCC. Envision Multi-Label Analyzer (PerkinElmer).
Experimental method: H1417 cells were seeded in a black 384-well plate, 1000 cells per well in […] of cell suspension. The test compounds were diluted 3-fold with Epmotion to the 10th concentration i.e, the compounds were diluted from 10 mmol to […], and a double duplicate well experiment was set. 198 μL medium was added to the middle plate, according to the corresponding position, 2 μL gradient diluted compounds were added to the middle plate. The mixture was mixed evenly and transferred 20 μL per well to the cell plates. The cell plates were incubated in a carbon dioxide incubator for 10 days. 25 μL of Promega CellTiter-Glo reagent per well was added to the cell plate and the mixture was incubated for 10 minutes at room temperature to stabilize the luminescence signal. Readings were performed by PerkinElmer Envision multi-label analyzer.
Data analysis: The original data was converted to the inhibition rate by the equation (Max-Ratio)/(Max-Min)*100%, and the value of IC50 can be obtained by curve fitting with four parameters. (Model 205 in XLFIT5, iDBS)
The growth inhibitory activities of the test compounds on H1417 cells were classified as + for IC50≤100 nM; ++ for IC50>100 nM and ≤500 nM; +++ for IC50>500 nM and ≤1000 nM; the highest percentage inhibition of cell viability was classified as: […]; 90%>B≥70%; 70%>C≥50%.

[1] = Homo sapiens, NCI-H1417, 240 h, H1417 cells
[2] = Homo sapiens, highest percentage inhibition of cell viability

| SMILES | IC50 (human LSD1) | IC50 (H1417 cells; [1]) | Emax (H1417 cells; [2]) | IC50 (H1417 cells; H1417 cells) | Maximum inhibition percentage (%) (H1417 cells; H1417 cells, highest percentage inhibition of cell viability) |
| --- | --- | --- | --- | --- | --- |
| N#CC1(CN[C@H]2CC2c2ccccc2)CC1 (stereo partly drawn) [Example 1] | 0.1 to 0.5 µM | ≤ 0.1 µM | 90 to 100% |  |  |
| NCC1(CN[C@H]2CC2c2ccccc2)CC1 (stereo partly drawn) [Example 4] | ≤ 0.05 µM | ≤ 0.1 µM | 50 to 70% |  |  |
| CCNCC1(CN[C@H]2CC2c2ccccc2)CC1 (stereo partly drawn) [Example 6] | 0.1 to 0.5 µM | 0.5 to 1 µM | 50 to 70% |  |  |
| N#CC1(CN[C@H]2CC2c2ccccc2)CCC1 (stereo partly drawn) [Example 8] | 0.05 to 0.1 µM | 0.1 to 0.5 µM | 50 to 70% |  |  |
| NCC1(CN[C@H]2CC2c2ccccc2)CCC1 (stereo partly drawn) [Example 9] | ≤ 0.05 µM | ≤ 0.1 µM | 70 to 90% |  |  |
| Clc1ccc(-c2noc(C3(CN[C@H]4CC4c4ccccc4)CC3)n2)cc1 (stereo partly drawn) [Example 69] | ≤ 0.05 µM | 0.5 to 1 µM | 50 to 70% |  |  |
| Clc1ccc(-c2nnc(C3(CN[C@H]4CC4c4ccccc4)CC3)o2)cc1 (stereo partly drawn) [Example 70] | ≤ 0.05 µM | 0.1 to 0.5 µM | 90 to 100% |  |  |
| CC(C)Oc1ccc(-c2nc(C3(CN[C@H]4CC4c4ccccc4)CCC3)no2)cc1 (stereo partly drawn) [Example 87] | ≤ 0.05 µM | 0.1 to 0.5 µM | 50 to 70% |  |  |
| FC(F)(F)Oc1ccc(-c2nc(C3(CN[C@H]4CC4c4ccccc4)CCC3)no2)cc1 (stereo partly drawn) [Example 88] | ≤ 0.05 µM | 0.1 to 0.5 µM | 50 to 70% |  |  |
| FC(F)Oc1ccc(-c2nc(C3(CN[C@H]4CC4c4ccccc4)CCC3)no2)cc1 (stereo partly drawn) [Example 89] | ≤ 0.05 µM | 0.1 to 0.5 µM | 50 to 70% |  |  |
| NC(=O)c1ccc(-c2nc(C3(CN[C@H]4CC4c4ccccc4)CCC3)no2)cc1 (stereo partly drawn) [Example 95] | ≤ 0.05 µM | ≤ 0.1 µM | 50 to 70% |  |  |
| N#Cc1ccc2c(c1)CN(CC1(CN[C@H]3CC3c3ccccc3)CC1)C2 (stereo partly drawn) [Example 100] | ≤ 0.05 µM | 0.1 to 0.5 µM | 50 to 70% |  |  |
| CN(C)[C@H]1CC[C@@H](c2nc(C3(CN[C@@H]4C[C@H]4c4ccccc4)CC3)no2)CC1 [Example 116] | ≤ 0.05 µM | 0.1 to 0.5 µM | 70 to 90% |  |  |
| O=C(N[C@H]1CC[C@@H](c2nc(C3(CN[C@@H]4C[C@H]4c4ccccc4)CC3)no2)CC1)C1CC1 [Example 117] | ≤ 0.05 µM | 0.1 to 0.5 µM | 70 to 90% |  |  |
| c1ccc(C2C[C@@H]2NCC2(c3noc(-c4ccc5scnc5c4)n3)CCC2)cc1 (stereo partly drawn) [Example 127] | ≤ 0.05 µM | 0.1 to 0.5 µM | 50 to 70% |  |  |
| COc1ccc(-c2nc(C3(CN[C@H]4CC4c4ccccc4)CCC3)no2)cn1 (stereo partly drawn) [Example 129] | ≤ 0.05 µM | 0.1 to 0.5 µM | 50 to 70% |  |  |
| FC(F)(F)c1ccc(-c2nc(C3(CN[C@H]4CC4c4ccccc4)CCC3)no2)cc1 (stereo partly drawn) [Example 132] | ≤ 0.05 µM | 0.1 to 0.5 µM | 50 to 70% |  |  |
| N[C@H]1CC[C@@H](c2nc(C3(CN[C@@H]4C[C@H]4c4ccccc4)CC3)no2)C1 [Example 147] | ≤ 0.05 µM | 0.5 to 1 µM | 90 to 100% |  |  |
| O=C(O)[C@H]1C[C@H](c2nc(C3(CN[C@@H]4C[C@H]4c4ccccc4)CC3)no2)C1 [Example 149] | 0.05 to 0.1 µM |  |  | 0.5 to 1 µM | C (70%>C≥50%) |

| SMILES | IC50 (human LSD1) | IC50 (H1417 cells; [1]) | Emax (H1417 cells; [2]) | IC50 (H1417 cells; H1417 cells) | Maximum inhibition percentage (%) (H1417 cells; H1417 cells, highest percentage inhibition of cell viability) |
| --- | --- | --- | --- | --- | --- |
| N[C@@H](CCc1nc(C2(CN[C@@H]3C[C@H]3c3ccccc3)CC2)no1)C(=O)O [Example 153] | 0.1 to 0.5 µM | 0.5 to 1 µM | 90 to 100% |  |  |
| c1ccc([C@@H]2C[C@H]2NCC2(c3noc([C@H]4C[C@H]5CNC[C@H]5C4)n3)CC2)cc1 [Example 156] | 0.05 to 0.1 µM | 0.1 to 0.5 µM | 70 to 90% |  |  |
| c1ccc([C@@H]2C[C@H]2NCC2(c3noc([C@@H]4C[C@H]5CNC[C@H]5C4)n3)CC2)cc1 [Example 157] | 0.05 to 0.1 µM | 0.5 to 1 µM | 70 to 90% |  |  |
| c1ccc([C@@H]2C[C@H]2NCC2(c3noc(C4CCC5(CC4)CNC5)n3)CC2)cc1 [Example 158] | ≤ 0.05 µM | 0.5 to 1 µM | 90 to 100% |  |  |
| NC1CCN(c2nc(C3(CN[C@@H]4C[C@H]4c4ccccc4)CC3)no2)CC1 [Example 159] | 0.05 to 0.1 µM | 0.1 to 0.5 µM | 90 to 100% |  |  |
| c1ccc(C2C[C@@H]2NCC2(c3noc(C4CCc5nc[nH]c5C4)n3)CC2)cc1 (stereo partly drawn) [Example 161] | ≤ 0.05 µM | 0.1 to 0.5 µM | 70 to 90% |  |  |
| c1ccc(C2C[C@@H]2NCC2(c3noc(-c4cn5c(n4)CCCC5)n3)CC2)cc1 (stereo partly drawn) [Example 162] | ≤ 0.05 µM | 0.5 to 1 µM | 90 to 100% |  |  |
| c1ccc(C2C[C@@H]2NCC2(c3noc(CC4CCNCC4)n3)CC2)cc1 (stereo partly drawn) [Example 163] | 0.1 to 0.5 µM | 0.1 to 0.5 µM | 70 to 90% |  |  |
| COC(=O)[C@H]1CC[C@H](c2nc(C3(CN[C@@H]4C[C@H]4c4ccccc4)CC3)no2)CC1 [Example 171] | ≤ 0.05 µM | 0.1 to 0.5 µM | 50 to 70% |  |  |
| O=C(O)[C@H]1CC[C@@H](c2nc(C3(CN[C@H]4CC4c4ccccc4)CC3)no2)C1 (stereo partly drawn) [Example 174] | 0.1 to 0.5 µM | 0.5 to 1 µM | 50 to 70% |  |  |
| O=C(O)[C@@H]1CC[C@H](c2nc(C3(CN[C@H]4CC4c4ccccc4)CC3)no2)C1 (stereo partly drawn) [Example 178] | 0.1 to 0.5 µM | 0.5 to 1 µM | 70 to 90% |  |  |
| NC(=O)c1ccc(-c2nc(C3(CN[C@H]4CC4c4ccccc4)CC3)no2)cc1 (stereo partly drawn) [Example 182] | ≤ 0.05 µM | 0.5 to 1 µM | 90 to 100% |  |  |
| CN(C)C(=O)c1ccc(-c2nc(C3(CN[C@H]4CC4c4ccccc4)CC3)no2)cc1 (stereo partly drawn) [Example 183] | ≤ 0.05 µM | 0.5 to 1 µM | 90 to 100% |  |  |
| O=C(NC1CC1)c1ccc(-c2nc(C3(CN[C@H]4CC4c4ccccc4)CC3)no2)cc1 (stereo partly drawn) [Example 184] | ≤ 0.05 µM | 0.1 to 0.5 µM | 90 to 100% |  |  |
| N#Cc1ccc(-c2nc(C3(CN[C@H]4CC4c4ccccc4)CCC3)no2)cc1 (stereo partly drawn) [Example 192] | ≤ 0.05 µM | 0.1 to 0.5 µM | 50 to 70% |  |  |
| N#Cc1ccc(-c2nc(C3(CN[C@H]4CC4c4ccccc4)CCC3)no2)c(F)c1 (stereo partly drawn) [Example 193] | ≤ 0.05 µM | 0.1 to 0.5 µM | 50 to 70% |  |  |
| NC1CCC(NCC2(CN[C@H]3CC3c3ccccc3)CC2)CC1 (stereo partly drawn) [Example 195] | ≤ 0.05 µM | 0.1 to 0.5 µM | 50 to 70% |  |  |
| c1ccc(C2C[C@@H]2NCC2(CN[C@@H]3CC3c3ccccc3)CC2)cc1 (stereo partly drawn) [Example 198] | ≤ 0.05 µM | 0.1 to 0.5 µM | 50 to 70% |  |  |
| NC1(CN[C@H]2CC2c2ccccc2)CC1 (stereo partly drawn) [Example 199] | 0.05 to 0.1 µM | 0.5 to 1 µM | 70 to 90% |  |  |
